Measurements published in ChEMBL document CHEMBL1201862, “PubChem BioAssay data set” (2004).
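Step 1: Grow cells in 96-well plates. Step 2: Expose to compound for 48 hours at 5 concentrations. Step 3: Interpolate endpoints linearly; if unreached, use highest concentration. At the GI50, growth is halved.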 Calls of active or inactive are those of the source. Cut-off read from the data, not from the text of the source: active = GI50 up to about 1.1 µM and inactive = higher.

Legend:
Assay in all cases: growth of human tumour cells (NCI), 48 h
[1] = test system: SF-295
[2] = test system: LXFL 529
[3] = test system: HOP-18
[4] = test system: OVCAR-3
[5] = test system: RPMI-8226
[6] = test system: M19-MEL
[7] = test system: HCT-15
[8] = test system: HCT-116
[9] = test system: SF-268
[10] = test system: 786-0
[11] = test system: UACC-257
[12] = test system: TK-10
[13] = test system: A549
[14] = test system: SN12C
[15] = test system: NCI-H460
[16] = test system: MOLT-4
[17] = test system: SW-620
[18] = test system: EKVX
[19] = test system: SK-MEL-2
[20] = test system: CCRF-CEM
[21] = test system: OVCAR-4
[22] = test system: M14
[23] = test system: SF-539
[24] = test system: OVCAR-5
[25] = test system: DMS-114
[26] = test system: HL-60
[27] = test system: DMS-273
[28] = test system: U-251
[29] = test system: NCI-H23
[30] = test system: KM12
[31] = test system: OVCAR-8
[32] = test system: UO-31
[33] = test system: SR
[34] = test system: UACC-62
[35] = test system: NCI-H522
[36] = test system: HOP-62
[37] = test system: ACHN
[38] = test system: NCI-H226
[39] = test system: SK-OV-3
[40] = test system: SNB-75
[41] = test system: SNB-19
[42] = test system: HOP-92
[43] = test system: IGROV-1
[44] = test system: SK-MEL-5
[45] = test system: Malme-3M
[46] = test system: RXF 631
[47] = test system: HT-29
[48] = test system: K562
[49] = test system: COLO 205
[50] = test system: HCC 2998
[51] = test system: A498
[52] = test system: DLD-1
[53] = test system: CAKI-1
[54] = test system: SK-MEL-28
[55] = test system: XF498
[56] = test system: LOX IMVI
[57] = test system: SNB-78

Measured: GI50

Cc1cccc(N2C(=O)/C(=C/c3ccc(N(CCC#N)CCC#N)cc3C)N=C2c2cc([N+](=O)[O-])ccc2Cl)c1
inactive: [1] > 100 µM | [2] > 100 µM | [3] > 100 µM | [4] > 100 µM | [5] > 100 µM | [6] > 100 µM | [8] 85.7 µM | [9] > 100 µM | [10] > 100 µM | [11] > 100 µM | [12] > 100 µM | [13] > 100 µM | [14] > 100 µM | [15] > 100 µM | [16] 46.5 µM | [17] > 100 µM | [18] 68.1 µM | [19] > 100 µM | [20] 41.9 µM | [21] > 100 µM | [22] > 100 µM | [23] > 100 µM | [24] > 100 µM | [25] 88.9 µM | [26] 74 µM | [27] > 100 µM | [28] > 100 µM | [29] > 100 µM | [30] > 100 µM | [31] > 100 µM | [32] > 100 µM | [33] > 100 µM | [34] > 100 µM | [35] > 100 µM | [36] > 100 µM | [37] > 100 µM | [38] > 100 µM | [39] > 100 µM | [40] > 100 µM | [41] > 100 µM | [42] > 100 µM | [43] > 100 µM | [44] > 100 µM | [45] > 100 µM | [46] > 100 µM | [47] 45.5 µM | [48] 86.1 µM | [49] 47.3 µM | [50] > 100 µM | [51] > 100 µM | [52] > 100 µM | [53] 8.18 µM | [54] > 100 µM
> 100 µM: [7]

N/N=C(\Cc1ccccc1)NN=C(N)N
inactive: [1] > 100 µM | [2] > 100 µM | [3] > 100 µM | [55] > 100 µM | [5] > 100 µM | [6] > 100 µM | [8] > 100 µM | [9] > 100 µM | [10] > 100 µM | [11] > 100 µM | [12] > 100 µM | [13] > 100 µM | [14] > 100 µM | [15] > 100 µM | [16] 47.1 µM | [56] > 100 µM | [17] > 100 µM | [18] > 100 µM | [19] > 100 µM | [20] 26.5 µM | [21] > 100 µM | [22] > 100 µM | [23] > 100 µM | [24] > 100 µM | [26] > 100 µM | [57] > 100 µM | [28] > 100 µM | [29] > 100 µM | [30] > 100 µM | [31] > 100 µM | [32] > 100 µM | [33] > 100 µM | [34] > 100 µM | [35] 32.1 µM | [37] 53.7 µM | [38] > 100 µM | [39] > 100 µM | [40] > 100 µM | [42] > 100 µM | [43] > 100 µM | [44] > 100 µM | [45] > 100 µM | [46] > 100 µM | [47] > 100 µM | [48] > 100 µM | [49] > 100 µM | [50] > 100 µM | [51] > 100 µM | [52] > 100 µM | [53] > 100 µM | [54] > 100 µM
74.8 µM: [7]
